Assay results from patent US12329137B2, “Method of preparing mouse model of herpes” (AJOU UNIVERSITY INDUSTRY-ACADEMIC COOPERATION FOUNDATION, priority 2019, dated 2025).

What was measured:
Format in all cases: in vivo, ICR mice
[1] = test system: CD8+ immune-related cells; assay: Flow cytometry frequency of CD8+ cells in peripheral blood leukocytes; conditions: HSV-1 inoculated mice
Protocol: (§1) The ear inner conch of a large number of 5-week-old ICR mice bred and reared in SPF (specific pathogen free) conditions was injured by being scratched with an injection needle at a strength sufficient to prevent blood from bleeding out, then the injured site was first inoculated with 20 μL of HSV-1 (herpes simplex virus type 1, F strain) solution (1×10^6 pfu/mL), and the mice were reared for 10 days. Next, the same injured site was secondarily inoculated with the same dose of HSV-1. One time a day for 5 days from the day after the first inoculation had been performed and one time a day for 5 days from the day after the second inoculation had been performed, hydrocortisone was intraperitoneally injected into each mouse at 50 μg/day to 500 μg/day. Thereafter, the faces of the mice were observed, mice having blisters formed around the lips were selected, and these were used as mouse models of herpes (FIG. 1).
(§2) Each mouse model of herpes was prepared by way of the method of Example 1 except that hydrocortisone was administered at about 50 μg/day, 150 μg/day, or 500 μg/day. Thereafter, peripheral blood was collected from each of the mouse models of herpes, peripheral blood leukocytes was isolated and obtained from the collected blood, and the frequencies of immune-related cells (CD4+, CD8+, and DX5+) contained in the peripheral blood leukocytes were measured and comparatively analyzed via flow cytometry (Tables 1 and 2). In this case, mouse models of herpes prepared without administration of hydrocortisone were used as a control group.

[2] = test system: herpes simplex virus type 1 (HSV-1); assay: Prevalence rate of herpes in mice given HSV-1 with hydrocortisone
Protocol: as §1

[3] = test system: CD4+ immune-related cells; assay: Flow cytometry frequency of CD4+ cells in peripheral blood leukocytes; conditions: HSV-1 inoculated mice
Protocol: as §1, §2

[4] = test system: DX5+ immune-related cells; assay: Flow cytometry frequency of DX5+ cells in peripheral blood leukocytes; conditions: HSV-1 inoculated mice
Protocol: as §1, §2

[5] = hydrocortisone 50 μg/day intraperitoneal
[6] = hydrocortisone 150 μg/day intraperitoneal
[7] = hydrocortisone 500 μg/day intraperitoneal

C[C@]12CCC(=O)C=C1CC[C@@H]1[C@@H]2[C@@H](O)C[C@@]2(C)[C@H]1CC[C@]2(O)C(=O)CO [Hydrocortisone, hydrocortisone]
expression frequency of CD8+ cells [1, 5]: 6.44 ± 2.6%
expression frequency of CD8+ cells [1, 6]: 4.78 ± 1.7%
expression frequency of CD8+ cells [1, 7]: 4.2 ± 1.7%
Prevalence rate of herpes (symptomatic mice/total mice) ([2]; HSV-1 + hydrocortisone at 150 μg/day in combination): 14.7% (14/95)
prevalence rate of herpes relative to mice administered with HSV-1 singly ([2]; HSV-1 + hydrocortisone at 150 μg/day in combination vs HSV-1 singly): about 2.5 times
expression frequency of CD4+ cells [3, 5]: 15.8 ± 8.8%
expression frequency of CD4+ cells [3, 6]: 12.4 ± 7.8%
expression frequency of CD4+ cells [3, 7]: 12.3 ± 4.7%
expression frequency of DX5+ cells [4, 5]: 4.4 ± 2.4%
expression frequency of DX5+ cells [4, 6]: 2.89 ± 1.9%
expression frequency of DX5+ cells [4, 7]: 2.5 ± 1.9%
